Measured values reported in BindingDB's records for doi:10.1111/j.1747-0285.2012.01416.x (University of California San Diego, 2012).

Target: Cruzipain (Trypanosoma cruzi, UniProt P25779)
Test: Enzymatic Assay
From the text: Enzymatic inhibition using cruzain.

Chain of Cruzipain (P25779 whole entry): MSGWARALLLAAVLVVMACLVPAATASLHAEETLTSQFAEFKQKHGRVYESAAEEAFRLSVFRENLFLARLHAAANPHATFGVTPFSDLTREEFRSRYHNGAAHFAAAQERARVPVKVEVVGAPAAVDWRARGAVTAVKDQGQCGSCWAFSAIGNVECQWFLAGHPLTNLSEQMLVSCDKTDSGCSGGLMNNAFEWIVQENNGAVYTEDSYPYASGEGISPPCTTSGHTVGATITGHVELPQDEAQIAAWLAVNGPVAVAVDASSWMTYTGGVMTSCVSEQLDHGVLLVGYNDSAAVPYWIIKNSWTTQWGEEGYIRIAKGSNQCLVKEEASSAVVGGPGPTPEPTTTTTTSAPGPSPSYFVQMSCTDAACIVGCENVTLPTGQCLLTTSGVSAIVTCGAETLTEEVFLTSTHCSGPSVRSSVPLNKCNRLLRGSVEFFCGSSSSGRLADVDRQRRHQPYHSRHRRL

Compound | IC50 [µM]
CO[C@H]1[C@@H](OC(=O)c2ccc(C)[nH]2)[C@@H](O)C(Oc2ccc3c(O)c(NC(=O)c4ccc(O)c(CC=C(C)C)c4)c(=O)oc3c2Cl)OC1(C)C (some centres not stated) [NSC227186] | 16
Cn1ccc(=Nc2ccc(NC(=O)c3ccc(N=c4ccn(C)c5ccc([N+](=O)[O-])cc45)cc3)cc2)cc1 [4-[(1-methyl-6-nitro-quinolin-4-ylidene)amino]-N-[4-[(1-methylpyridin-4-ylidene)amino]phenyl]benzamide] | 63
